# Measurements reported in patent US9975907B2, “Pyrimidinones as PI3K inhibitors” (Incyte Corporation, priority 2009, dated 2018).
# Where a name gives a salt, the structure may show the parent alone.
# Molecular target: PI3Kδ (p110δ/p85α) (Homo sapiens (Human), UniProt O00329)
# Experiment: PI3Kδ Scintillation Proximity Assay (Assay A3)
# Type: biochemical
# Details: column b, Assay A3 (SPA), 20 μM ATP
# Description: [γ-^33P]ATP (10 mCi/mL) was purchased from Perkin-Elmer (Waltham, Mass.). Lipid kinase substrate, D-myo-Phosphatidylinositol 4,5-bisphosphate (PtdIns(4,5)P2)D (+)-sn-1,2-di-O-octanoylglyceryl, 3-O-phospho linked (PIP2), CAS 204858-53-7, was purchased from Echelon Biosciences (Salt Lake City, Utah). PI3Kδ (p110δ/p85α) was purchased from Millipore (Bedford, Mass.). ATP, MgCl2, DTT, EDTA, MOPS and CHAPS were purchased from Sigma-Aldrich (St. Louis, Mo.). Wheat Germ Agglutinin (WGA) YSi SPA Scintillation Beads was purchased from GE healthcare life sciences (Piscataway, N.J.).
# The kinase reaction was conducted in polystyrene 384-well matrix white plate from Thermo Fisher Scientific in a final volume of 25 μL. Inhibitors were first diluted serially in DMSO and added to the plate wells before the addition of other reaction components. The final concentration of DMSO in the assay was 0.5%. The PI3K assays were carried out at room temperature in 20 mM MOPS, pH 6.7, 10 mM MgCl2, 5 mM DTT and CHAPS 0.03%. Reactions were initiated by the addition of ATP, the final reaction mixture consisted of 20 μM PIP2, 20 μM ATP, 0.2 μCi [γ-^33P] ATP, 4 nM PI3Kδ. Reactions were incubated for 210 min and terminated by the addition of 40 μL SPA beads suspended in quench buffer: 150 mM potassium phosphate pH 8.0, 20% glycerol. 25 mM EDTA, 400 μM ATP. The final concentration of SPA beads was 1.0 mg/mL. After the plate sealing, plates were shaken overnight at room temperature and centrifuged at 1800 rpm for 10 minutes, the radioactivity of the product was determined by scintillation counting on Topcount (Perkin-Elmer). IC50 determination was performed by fitting the curve of percent control activity versus the log of the inhibitor concentration using the GraphPad Prism 3.0 software.
# Sequence of PI3Kδ (p110δ/p85α) (O00329 whole entry, species assumed): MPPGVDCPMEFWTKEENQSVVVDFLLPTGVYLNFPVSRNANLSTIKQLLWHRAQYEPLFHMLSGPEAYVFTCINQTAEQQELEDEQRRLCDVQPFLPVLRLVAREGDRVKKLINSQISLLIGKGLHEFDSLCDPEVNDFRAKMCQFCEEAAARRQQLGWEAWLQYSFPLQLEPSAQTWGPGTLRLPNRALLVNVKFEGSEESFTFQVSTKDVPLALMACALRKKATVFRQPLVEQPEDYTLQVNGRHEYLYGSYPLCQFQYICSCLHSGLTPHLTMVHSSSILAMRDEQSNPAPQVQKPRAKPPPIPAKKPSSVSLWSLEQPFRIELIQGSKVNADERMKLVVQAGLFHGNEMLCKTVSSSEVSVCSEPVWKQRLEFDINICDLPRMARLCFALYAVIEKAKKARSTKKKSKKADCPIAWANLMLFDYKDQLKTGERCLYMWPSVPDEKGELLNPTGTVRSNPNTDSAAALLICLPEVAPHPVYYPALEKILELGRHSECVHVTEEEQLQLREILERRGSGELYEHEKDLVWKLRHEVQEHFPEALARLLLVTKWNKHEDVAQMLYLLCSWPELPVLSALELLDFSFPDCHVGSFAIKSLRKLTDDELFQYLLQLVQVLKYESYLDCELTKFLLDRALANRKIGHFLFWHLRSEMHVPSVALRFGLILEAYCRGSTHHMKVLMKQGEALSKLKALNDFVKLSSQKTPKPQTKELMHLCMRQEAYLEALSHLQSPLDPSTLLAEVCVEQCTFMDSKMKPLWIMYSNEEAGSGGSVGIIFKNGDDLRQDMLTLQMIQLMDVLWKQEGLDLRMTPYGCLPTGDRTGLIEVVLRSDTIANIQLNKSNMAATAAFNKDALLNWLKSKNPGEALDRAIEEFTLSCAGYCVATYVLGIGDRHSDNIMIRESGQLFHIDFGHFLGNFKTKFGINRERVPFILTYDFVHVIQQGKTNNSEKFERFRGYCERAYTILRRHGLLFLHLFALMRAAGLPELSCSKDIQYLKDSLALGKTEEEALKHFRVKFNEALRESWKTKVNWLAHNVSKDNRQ
# Sequence of PI3Kδ (p110δ/p85α) (P27986 whole entry partner, species assumed): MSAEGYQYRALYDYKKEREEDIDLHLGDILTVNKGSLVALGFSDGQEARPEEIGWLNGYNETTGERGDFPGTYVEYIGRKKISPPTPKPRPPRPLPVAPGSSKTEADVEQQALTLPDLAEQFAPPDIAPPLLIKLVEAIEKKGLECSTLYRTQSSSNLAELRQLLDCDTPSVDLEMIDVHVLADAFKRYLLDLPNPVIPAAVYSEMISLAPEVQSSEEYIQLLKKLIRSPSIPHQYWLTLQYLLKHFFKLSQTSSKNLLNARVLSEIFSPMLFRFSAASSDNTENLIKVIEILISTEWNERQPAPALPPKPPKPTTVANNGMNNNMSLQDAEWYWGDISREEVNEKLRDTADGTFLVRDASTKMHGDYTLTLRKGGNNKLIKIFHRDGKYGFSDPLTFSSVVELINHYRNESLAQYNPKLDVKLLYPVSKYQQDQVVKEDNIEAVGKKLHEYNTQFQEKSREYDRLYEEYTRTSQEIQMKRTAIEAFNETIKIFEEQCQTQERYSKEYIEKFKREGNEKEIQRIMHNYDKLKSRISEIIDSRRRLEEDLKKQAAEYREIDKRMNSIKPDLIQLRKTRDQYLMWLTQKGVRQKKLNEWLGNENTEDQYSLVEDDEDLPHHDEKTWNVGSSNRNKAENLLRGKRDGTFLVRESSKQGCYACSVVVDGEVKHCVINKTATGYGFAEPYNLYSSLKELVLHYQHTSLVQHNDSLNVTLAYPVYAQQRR
row,SMILES,IC50
1,"Cc1csc2nc(C(C)Nc3nc(N)nc4[nH]cnc34)c(-c3cccc(F)c3F)c(=O)n12 (stereo not shown) [Example 34, 7-{1-[(2-amino-9H-purin-6-yl)amino]ethyl}-6-(2,3-difluorophenyl)-3-methyl-5H-[1,3]thiazolo[3,2-a]pyrimidin-5-one trifluoroacetic acid salt]",< 50 nM
2,"Cc1csc2nc(C(C)Nc3ncnc4[nH]cnc34)c(-c3ccncc3)c(=O)n12 (stereo not shown) [Example 19, 3-methyl-7-[1-(9H-purin-6-ylamino)ethyl]-6-pyridin-4-yl-5H-[1,3]thiazolo[3,2-a]pyrimidin-5-one]",100 to 500 nM
3,"CC(Nc1ncnc2[nH]cnc12)c1nc2sccn2c(=O)c1-c1ccccc1 (stereo not shown) [Example 29, 6-phenyl-7-[1-(9H-purin-6-ylamino)ethyl]-5H-[1,3]thiazolo[3,2-a]pyrimidin-5-one]",> 500 nM
4,"Cc1csc2nc(C(C)Nc3ncnc4[nH]cnc34)c(-c3cccc(Cl)c3)c(=O)n12 (stereo not shown) [Example 36, 6-(3-chlorophenyl)-3-methyl-7-[1-(9H-purin-6-ylamino)ethyl]-5H-[1,3]thiazolo[3,2-a]pyrimidin-5-one trifluoroacetic acid salt]",100 to 500 nM
5,"Cc1csc2nc(C(C)Nc3nc(N)nc4[nH]cnc34)c(-c3ccccc3F)c(=O)n12 (stereo not shown) [Example 33, 7-{1-[(2-amino-9H-purin-6-yl)amino]ethyl}-6-(2-fluorophenyl)-3-methyl-5H-[1,3]thiazolo[3,2-a]pyrimidin-5-one trifluoroacetic acid salt]",< 50 nM
6,"Cc1csc2nc(C(C)Nc3ncnc4[nH]ccc34)c(-c3cc(F)cc(F)c3)c(=O)n12 (stereo not shown) [Example 17, 6-(3,5-difluorophenyl)-3-methyl-7-[1-(7H-pyrrolo[2,3-d]pyrimidin-4-ylamino)ethyl]-5H-[1,3]thiazolo[3,2-a]pyrimidin-5-one]",100 to 500 nM
7,"CC(Nc1ncnc2[nH]cnc12)c1nc2sccn2c(=O)c1-c1cc(F)cc(F)c1 (stereo not shown) [Example 25, 6-(3,5-difluorophenyl)-7-[1-(9H-purin-6-ylamino)ethyl]-5H-[1,3]thiazolo[3,2-a]pyrimidin-5-one]",> 500 nM

# Now from value to molecule:
row,IC50,SMILES
1,> 500 nM,"Cc1cccc2nc(C(C)Nc3ncnc4[nH]cnc34)c(-c3ccc(Cl)cc3)c(=O)n12 (stereo not shown) [Example 55, 3-(4-Chlorophenyl)-6-methyl-2-[1-(9H-purin-6-ylamino)ethyl]-4H-pyrido[1,2-a]pyrimidin-4-one trifluoroacetic acid salt]"
2,50 to 100 nM,"Cc1cccc2nc(C(C)Nc3nc(N)nc4[nH]cnc34)c(-c3cccc(C#N)c3)c(=O)n12 (stereo not shown) [Example 84, 3-(2-{1-[(2-Amino-9H-purin-6-yl)amino]ethyl}-6-methyl-4-oxo-4H-pyrido[1,2-a]pyrimidin-3-yl)benzonitrile trifluoroacetic acid salt]"
3,100 to 500 nM,"Cc1cccc2nc(C(C)Nc3ncnc4[nH]cnc34)c(-c3cccc(Cl)c3)c(=O)n12 (stereo not shown) [Example 53, 3-(3-Chlorophenyl)-6-methyl-2-[1-(9H-purin-6-ylamino)ethyl]-4H-pyrido[1,2-a]pyrimidin-4-one trifluoroacetic acid salt]"
4,100 to 500 nM,"Cc1csc2nc(C(C)Nc3ncnc4[nH]cnc34)c(-c3cc(F)cc(Cl)c3)c(=O)n12 (stereo not shown) [Example 37, 6-(3-chloro-5-fluorophenyl)-3-methyl-7-[1-(9H-purin-6-ylamino)ethyl]-5H-[1,3]thiazolo[3,2-a]pyrimidin-5-one trifluoroacetic acid salt]"
5,< 50 nM,"Cc1cccc2nc(C(C)Nc3nc(N)nc4[nH]cnc34)c(-c3ccccc3)c(=O)n12 (stereo not shown) [Example 50, 2-{1-[(2-Amino-9H-purin-6-yl)amino]ethyl}-6-methyl-3-phenyl-4H-pyrido[1,2-a]pyrimidin-4-one trifluoroacetic acid salt]"
6,50 to 100 nM,"CC(Nc1ncnc2[nH]cnc12)c1nc2scc(C(F)(F)F)n2c(=O)c1-c1cccc(F)c1 (stereo not shown) [Example 48, 6-(3-Fluorophenyl)-7-[1-(9H-purin-6-ylamino)ethyl]-3-(trifluoromethyl)-5H-[1,3]thiazolo[3,2-a]pyrimidin-5-one]"
